# Like-named read-outs stand apart in the source and are kept apart here.
# Tests used:
# FGF [1] = assay: semi-quantitative evaluation of FGF protection against trypsin (densitometry of radio-labelled FGF); type: biochemical; details: FGF + trypsin + polymer; radio-labelled FGF found vs quantity deposited
# Protocol: As described above, a constant quantity of radioactive FGF is incubated under various conditions. After autoradiography of the reaction products, the non degraded quantity of radioactive FGF is quantified by densitometry. The values correspond to the percentage of radio-labelled FGF found compared to the quantity deposited at the start of reaction (Table 5).
# beta TGF = target: T1, beta TGF (Homo sapiens, UniProt P01137); assay: protection of beta TGF against trypsin, read by inhibition of tritiated thymidine incorporation in CCL64 cells; type: cell-based; details: 37° C. 10 min
# T1 construct: from tissue; host or cells: human blood platelets
# Protocol: In order to measure the capacity of certain CMDBSs to interact with members of the beta TGF family and, by means of this interaction, to protect the beta TGFS, a grading test was devised.
# The beta 1 TFG is prepared from human blood platelets according to a protocol described in numerous publications (for example Growth factors and their receptors, 1992, vol 1 pp 419-472, written by A. Roberts and M. Sporn, edited by A. Roberts and M. Sporn, and published by Springer Verlag Berlin) and is commonly used by persons of ordinary skill in the art. The beta TGF biological activity test used in this example is that of the inhibition of CCL64 cells (from the American Tissue Culture Collection). This inhibition is measured by the ability of the beta TGF to inhibit the incorporation of tritiated thymidine in a dose dependent manner in these CCL64 cells stimulated by the FGF or by fetal calf serum according to the protocol described by Van Zolen in Progress in Growth Factor Research, 1990, 2, pp 131 to 152. Two doses of beta TGF are used, one corresponding to the 50% inhibition capacity of the incorporation of tritiated thymidine (defined as the inhibiting activity unit) and the other corresponding to the 100% inhibition capacity.
# The final volume of the incubated solution is adjusted to 1 ml and incubation is carried out at 37° C. for a varying length of time (10 minutes in the example described (Table 1)).
# 20 μl samples […] are taken from each of the incubation reactions and added to CCL64 cells cultivated in 24-well plates, each well containing one milliliter of culture medium according to the aforementioned protocol described by E. Zohlen. In these conditions, the final concentration of beta TGF per well is 1 ng/ml.
# The incubation mixture contained 50 ng of beta TGF (in 0.1% bovine serum albumin) and trypsin (500 μg). Mesoglycan or sulodexide or dextran sulfate or dextran or sucrase are used at the dose of 5000 μg.
# The beta TGF biological activity is measured as described above after a dilution of 50 times and by using CCL64 cells.
# FGF [2] = details: Tardieu et al. 1992; cited from earlier work
# FGF 1 = assay: potentialization of FGF1 biological activity, tritiated thymidine incorporation in CCL39 cells; type: cell-based
# Description: (§1) The cells used in this example are CCL39 cells from the American Tissue Culture Collection. The conditions concerning culture and the measurement test of FGF biological activity are the same as those described in the publication by Tardieu and coll. in the Journal of Cellular Physiology, 1992. The FGF growth factors used are the FGF 1 and FGF 2 recombinant forms.
# (§2) In these experiments, the FGF 1 or 2 is used at a dose corresponding to the effective dose (indicated ED50) in order to induce a stimulation of the biological activity of 50% of the dose inducing the maximum stimulation. The biological activity is measured by the ability to induce an increase of the incorporation of tritiated thymidine in the cells according to protocols extensively described in numerous publications such as the previously mentioned publication by Tardieu et coll. and also in French Patent 2 644 066.
# (§3) In addition to this ability to potentialize the biological activity of the FGFs, the HBGFPPs protect the FGFs against thermal degradations and the inactivation induced by the proteolytic action of trypsin (FIGS. 4 and 5). Similarly, these HBGFPPs protect FGF1 and 2 against an inactivation induced by the proteolytic activity of trypsin (FIGS. 5A and 5B).
# FGF1 = assay: protection of FGF1 against thermal degradation; type: cell-based; details: FIG. 3; 20° C. and 37° C., 1, 7, 15, 30 days
# Protocol: (§4) (a) and 37° C. (b) for 1, 7, 15, 30 days. The measurement of the biological activity presented in abscissa corresponds to the stimulation unit values (ED50) of the incorporation of tritiated thymidine in CCL39 cells.
# FGF 2 = assay: potentialization of FGF2 biological activity, tritiated thymidine incorporation in CCL39 cells; type: cell-based
# Description: as §1, §2, §3
# 125I-FGF2 = assay: protection of 125I-FGF2 against proteolytic degradation by trypsin (gel, autoradiography); type: biochemical; details: FIG. 5B, 37° C.
# Description: The arrangement of the tracks is identical to that presented for the ^125 I-FGF1 in FIG. 5A.
# FGF2 = assay: protection of FGF2 against thermal degradation; type: cell-based; details: FIG. 4; 20° C. and 37° C., 1, 7, 15, 30 days
# Protocol: as §4
# 125I-FGF1 = assay: protection of 125I-FGF1 against proteolytic degradation by trypsin (gel, autoradiography); type: biochemical; details: FIG. 5A, 37° C.
# Protocol: Proteolytic digestion was carried out at 37° C. and the samples were separated by 18% polyacrylamide gel electrophoresis. The gels are dried and autoradiographed. The first track contains the 125I-FGF1 on its own.
# complement system = details: according to Mauzac et al.
# [3] = tested on: anastomosis of the rectocolic junction
# Protocol: Male Wistar rats (Wi/Wi, Ico, Iffa Credo France), weighing 250 to 300 g are anesthetized with sodic pentobarbital. A subumbilical midline laparotomy is performed over 1.5 cm. The rectocolic junction is individualized and then sectioned with bistoury. […] The anastomosis is carried out according to a termino-terminal mode in a plane by five separate stitches of polyglactine 910 thread, diameter 6/0. The knots are made of 6 loops. Parietal closure is performed in two planes. The rats are divided into two groups of 7 rats. The experiments are conducted in double blind. Samples are taken on the 2nd, 4th and 7th days after the operation. The quality of the healing is studied by measuring the rupture pressure of the anastomosis, in millimeters of mercury. The colon is sectioned 2 cm on either side of the anastomosis, one end being connected to a self-pushing syringe which injects water at a low, constant rate, and the other end being linked to a manometer. Pressure is recorded continuously on a reel of paper. The rupture pressure is determined by analyzing the tracing.
# trypsin = assay: enzymatic activity of trypsin on substrate S87
# Protocol: The enzymatic activity of trypsin was measured by spectrophotometric absorption of the transformation product of S 87 versus incubation time.
# [4] = tested on: colitis induced by acetic acid; assay: colitis induced by acetic acid; type: in vivo, Sprague Dawley male rats; details: for Alteration score: per os twice a day for three days, score 72 hours after acetic acid, mean ± standard error
# Protocol: Groups of 6 Sprague Dawley male rats weighing approximately 200 g are placed in hydric fasting 24 hours before the test. On the day of the test, the animals are anesthetized with pentobarbital (30 mg/kg) by intraperitoneal route. After laparotomy, a colic instillation of 2 ml of 5% acetic acid is performed 2 cm from the caecum. The acetic acid is left in contact for 10 seconds and the colon is then rinsed by 3 ml of saline phosphate buffer (PBS) at pH 7. The wound is then closed. The animals are sacrificed 72 hours later by cervical elongation. The colic alterations are noted on the following scale:
# 2: superficial necrosis of the mucosa
# 4: major necrosis of the mucosa with edema
# A third group receives sucralfate (marketed under the name of ULCAR Pharmaceutical Laboratories Fabre). The supplier's recommended dose is used (500 mg/kg, i.e. 100 mg per rat) administered orally twice a day for three days.
# The mean and the standard error were calculated for each batch of animals. Statistical comparison is performed using White's non parametric test compared to the control.
# [5] = beta TGF 50 ng + polymer 5000 μg + trypsin 500 μg
# [6] = beta TGF 50 ng + polymer 5000 μg, no trypsin
# [7] = 10 μg/ml of sulodexide or 20 μg/ml of heparin, CCL39 cells
# T1 sequence (P01137 279-390 limits assumed): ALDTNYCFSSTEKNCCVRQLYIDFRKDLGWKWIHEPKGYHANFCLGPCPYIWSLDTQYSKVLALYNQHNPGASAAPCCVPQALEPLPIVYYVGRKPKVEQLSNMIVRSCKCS
molecule,measurement,setting,value
heparin,PROTECTION (in %) of the FGF,FGF [1],100%
same,% inhibiting activity of the incorporation of tritiated thymidine in CCL64 cells,beta TGF; [5],10%
same,% inhibiting activity of the incorporation of tritiated thymidine in CCL64 cells,beta TGF; [6],100%
same,protection of FGFs against proteolysis induced by trypsin,FGF [2],provides protection against proteolysis induced by trypsin
same,ED50 of FGF 1 in the presence of polymer,FGF 1; [7],0.4 ng/mL
same,potentialization of the biological activity of FGF1,"FGF 1; FIG. 2A, 20 μg heparin, 10 μg mesoglycan or 10 μg sulodexide",potentialization
same,protective effect against thermal degradation of FGF1,FGF1,protective effect
same,ED50 of FGF 2 in the presence of polymer,FGF 2; [7],0.2 ng/mL
same,potentialization of the biological activity of FGF2,"FGF 2; FIG. 2B, 20 μg heparin, 10 μg mesoglycan or 10 μg sulodexide",potentialization
same,protective effect against proteolytic degradation of 125I-FGF2,125I-FGF2,protective effect
same,protective effect against thermal degradation of FGF2,FGF2,protective effect
same,protective effect against proteolytic degradation of 125I-FGF1,125I-FGF1,protective effect
carboxymethyl dextran benzylamide sulfonate [CMDBS],"anticomplement activity, CH50",complement system,1.1 µg
same,% inhibiting activity of the incorporation of tritiated thymidine in CCL64 cells,beta TGF; [5],75%
same,% inhibiting activity of the incorporation of tritiated thymidine in CCL64 cells,beta TGF; [6],100%
same,"Rupture pressure, mean",[3]; DAY 2,67.28 mm of Hg
same,"Rupture pressure, mean",[3]; DAY 4,144.8 mm of Hg
same,increased resistance vs untreated,[3]; Day 4,about 10%
same,difference between treated and untreated resistances,[3]; Day 7,no longer any difference
same,inhibiting power on the activity of trypsin,trypsin,no inhibiting power
same,trypsin activity on S87,trypsin; trypsin 10 ug/ml + S87 + 5 μg/ml CMDBS,100
same,trypsin activity on S87,trypsin; trypsin + S87 + 50 μg/ml CMDBS,100
same,trypsin activity on S87,trypsin; trypsin + S87 + 500 μg/ml CMDBS,100
same,Alteration score,[4],0.70 ± 0.37
same,reduction of the seriousness of the colic lesions,[4]; p≤0.05,about 75%
sucralfate [reference compound],Alteration score,[4],2.25 ± 0.48
same,effect on the healing of the ulcers,"[4]; rat, in vivo",no significant effect
"STBI: trypsin inhibitor originating from soya, from Sigma (protein, UniProt P01070 25-205, looked up) Trypsin inhibitor A: DFVLDNEGNPLENGGTYYILSDITAFGGIRAAPTGNERCPLTVVQSRNELDKGIGTIISSPYRIRFIAEGHPLSLKFDSFAVIMLCVGIPTEWSVVEDLPEGPAVKIGENKDAMDGWFRLERVSDDEFNNYKLVFCPQQAEDDKCGDIGISIDHDDGTRRLVVSKNKPLVVQFQKLDKESL",trypsin activity on S87,trypsin; trypsin + S87 + trypsin inhibitor,0

# — patent US5852004A, “Drug and pharmaceutical composition for the treatment of lesions of the digestive tract” (Societe Valbiofrance, priority 1994, dated 1998)
